Laboratory results as given in ChEMBL document CHEMBL5442741, “ASAP - In vitro kinase profile” (2024).

Columns and labels:
[1] = target: Serine/threonine-protein kinase PAK 2 (Homo sapiens) (UniProt Q13177); assay: Enzymatic radiometric [Km ATP] KinaseProfiler LeadHunter assay, kinase: PAK2, catalogue number: 14-481KP The assay has been performed by Eurofins Discovery.; settings: ATP concentration 90.0 uM, Test compound concentration 10.0 uM
[2] = target: Serine/threonine-protein kinase PLK3 (Homo sapiens) (UniProt Q9H4B4); assay: Enzymatic radiometric [Km ATP] KinaseProfiler LeadHunter assay, kinase: Plk3, catalogue number: 14-572KP The assay has been performed by Eurofins Discovery.; settings: ATP concentration 70.0 uM, Test compound concentration 10.0 uM
[3] = target: ALK tyrosine kinase receptor (Homo sapiens) (UniProt Q9UM73); assay: Enzymatic radiometric [Km ATP] KinaseProfiler LeadHunter assay, kinase: ALK, catalogue number: 14-555KP The assay has been performed by Eurofins Discovery.; settings: ATP concentration 200.0 uM, Test compound concentration 10.0 uM
[4] = target: Tyrosine-protein kinase JAK2 (Homo sapiens) (UniProt O60674); assay: Enzymatic radiometric [Km ATP] KinaseProfiler LeadHunter assay, kinase: JAK2, catalogue number: 14-640KP The assay has been performed by Eurofins Discovery.; settings: ATP concentration 45.0 uM, Test compound concentration 10.0 uM
[5] = target: cAMP-dependent protein kinase catalytic subunit alpha (Homo sapiens) (UniProt P17612); assay: Enzymatic radiometric [Km ATP] KinaseProfiler LeadHunter assay, kinase: PKA, catalogue number: 14-440KP The assay has been performed by Eurofins Discovery.; settings: ATP concentration 10.0 uM, Test compound concentration 10.0 uM
[6] = target: T1, Inhibitor of nuclear factor kappa-B kinase subunit alpha (Homo sapiens) (UniProt O15111); assay: Enzymatic radiometric [Km ATP] KinaseProfiler LeadHunter assay, kinase: IKK-alpha, catalogue number: 14-461KP The assay has been performed by Eurofins Discovery.; settings: ATP concentration 10.0 uM, Test compound concentration 10.0 uM
T1 sequence (whole entry): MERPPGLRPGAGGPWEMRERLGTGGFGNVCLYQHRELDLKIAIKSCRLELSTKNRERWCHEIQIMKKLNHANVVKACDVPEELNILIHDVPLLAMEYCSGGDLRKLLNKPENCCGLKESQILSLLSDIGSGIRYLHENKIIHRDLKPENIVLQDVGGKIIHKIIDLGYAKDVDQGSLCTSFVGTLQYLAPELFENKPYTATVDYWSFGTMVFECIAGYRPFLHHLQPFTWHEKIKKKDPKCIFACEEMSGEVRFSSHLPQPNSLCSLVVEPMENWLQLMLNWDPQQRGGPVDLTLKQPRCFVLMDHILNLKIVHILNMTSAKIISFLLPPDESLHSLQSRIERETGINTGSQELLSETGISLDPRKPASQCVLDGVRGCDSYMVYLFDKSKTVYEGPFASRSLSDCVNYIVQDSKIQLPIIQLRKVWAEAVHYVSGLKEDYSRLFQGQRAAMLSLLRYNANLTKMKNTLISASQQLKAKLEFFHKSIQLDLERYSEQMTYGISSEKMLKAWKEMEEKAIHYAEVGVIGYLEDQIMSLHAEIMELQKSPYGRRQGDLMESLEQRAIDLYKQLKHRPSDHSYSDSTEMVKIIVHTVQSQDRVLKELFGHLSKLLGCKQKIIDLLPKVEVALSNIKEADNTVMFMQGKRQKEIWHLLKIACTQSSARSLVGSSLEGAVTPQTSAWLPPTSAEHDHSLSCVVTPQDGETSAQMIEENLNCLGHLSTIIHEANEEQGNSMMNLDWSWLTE

[7] = target: Rho-associated protein kinase 1 (Homo sapiens) (UniProt Q13464); assay: Enzymatic radiometric [Km ATP] KinaseProfiler LeadHunter assay, kinase: ROCK-I, catalogue number: 14-601KP The assay has been performed by Eurofins Discovery.; settings: ATP concentration 70.0 uM, Test compound concentration 10.0 uM
[8] = target: PI3-kinase p110-alpha/p85-alpha (Homo sapiens) (UniProt P27986+P42336); assay: Enzymatic radiometric [Km ATP] KinaseProfiler LeadHunter assay, kinase: PI3 Kinase (p110-alpha/p85-alpha), catalogue number: 14-602KP The assay has been performed by Eurofins Discovery.; format: protein-complex assay; settings: ATP concentration 200.0 uM, Test compound concentration 10.0 uM
[9] = target: T2, Aurora kinase A (Homo sapiens) (UniProt O14965); assay: Enzymatic radiometric [Km ATP] KinaseProfiler LeadHunter assay, kinase: Aurora-A, catalogue number: 14-511KP The assay has been performed by Eurofins Discovery.; settings: ATP concentration 15.0 uM, Test compound concentration 10.0 uM
T2 sequence (whole entry): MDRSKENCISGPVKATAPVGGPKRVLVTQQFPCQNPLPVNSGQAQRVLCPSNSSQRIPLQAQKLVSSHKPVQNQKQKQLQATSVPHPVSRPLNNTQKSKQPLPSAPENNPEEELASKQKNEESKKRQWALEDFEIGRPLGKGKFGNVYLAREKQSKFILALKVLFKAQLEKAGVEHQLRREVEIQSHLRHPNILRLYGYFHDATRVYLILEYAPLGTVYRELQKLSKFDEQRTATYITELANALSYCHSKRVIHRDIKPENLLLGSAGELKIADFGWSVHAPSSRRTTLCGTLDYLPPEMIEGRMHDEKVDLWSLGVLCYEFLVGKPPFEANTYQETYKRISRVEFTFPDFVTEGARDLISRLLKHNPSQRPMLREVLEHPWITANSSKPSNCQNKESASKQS

[10] = target: Tyrosine-protein kinase Fyn (Homo sapiens) (UniProt P06241); assay: Enzymatic radiometric [Km ATP] KinaseProfiler LeadHunter assay, kinase: Fyn, catalogue number: 14-441KP The assay has been performed by Eurofins Discovery.; settings: ATP concentration 70.0 uM, Test compound concentration 10.0 uM
[11] = target: Mitogen-activated protein kinase kinase kinase 9 (Homo sapiens) (UniProt P80192); assay: Enzymatic radiometric [Km ATP] KinaseProfiler LeadHunter assay, kinase: MLK1, catalogue number: 14-690KP The assay has been performed by Eurofins Discovery.; settings: ATP concentration 45.0 uM, Test compound concentration 10.0 uM
[12] = target: Serine/threonine-protein kinase mTOR (Homo sapiens) (UniProt P42345); assay: Enzymatic radiometric [Km ATP] KinaseProfiler LeadHunter assay, kinase: mTOR, catalogue number: 14-769KP The assay has been performed by Eurofins Discovery.; settings: ATP concentration 70.0 uM, Test compound concentration 10.0 uM
[13] = target: Glycogen synthase kinase-3 beta (Homo sapiens) (UniProt P49841); assay: Enzymatic radiometric [Km ATP] KinaseProfiler LeadHunter assay, kinase: GSK3-beta, catalogue number: 14-306KP The assay has been performed by Eurofins Discovery.; settings: ATP concentration 15.0 uM, Test compound concentration 10.0 uM
[14] = target: Casein kinase II subunit alpha' (Homo sapiens) (UniProt P19784); assay: Enzymatic radiometric [Km ATP] KinaseProfiler LeadHunter assay, kinase: CK2-alpha2, catalogue number: 14-689KP The assay has been performed by Eurofins Discovery.; settings: ATP concentration 10.0 uM, Test compound concentration 10.0 uM
[15] = target: Insulin-like growth factor 1 receptor (Homo sapiens) (UniProt P08069); assay: Enzymatic radiometric [Km ATP] KinaseProfiler LeadHunter assay, kinase: IGF-1R, catalogue number: 14-465KP The assay has been performed by Eurofins Discovery.; settings: ATP concentration 200.0 uM, Test compound concentration 10.0 uM
[16] = target: MAP kinase-interacting serine/threonine-protein kinase 2 (Homo sapiens) (UniProt Q9HBH9); assay: Enzymatic radiometric [Km ATP] KinaseProfiler LeadHunter assay, kinase: Mnk2, catalogue number: 14-664KP The assay has been performed by Eurofins Discovery.; settings: ATP concentration 120.0 uM, Test compound concentration 10.0 uM
Sequence of MAP kinase-interacting serine/threonine-protein kinase 2 (Homo sapiens) (Q9HBH9 whole entry, looked up): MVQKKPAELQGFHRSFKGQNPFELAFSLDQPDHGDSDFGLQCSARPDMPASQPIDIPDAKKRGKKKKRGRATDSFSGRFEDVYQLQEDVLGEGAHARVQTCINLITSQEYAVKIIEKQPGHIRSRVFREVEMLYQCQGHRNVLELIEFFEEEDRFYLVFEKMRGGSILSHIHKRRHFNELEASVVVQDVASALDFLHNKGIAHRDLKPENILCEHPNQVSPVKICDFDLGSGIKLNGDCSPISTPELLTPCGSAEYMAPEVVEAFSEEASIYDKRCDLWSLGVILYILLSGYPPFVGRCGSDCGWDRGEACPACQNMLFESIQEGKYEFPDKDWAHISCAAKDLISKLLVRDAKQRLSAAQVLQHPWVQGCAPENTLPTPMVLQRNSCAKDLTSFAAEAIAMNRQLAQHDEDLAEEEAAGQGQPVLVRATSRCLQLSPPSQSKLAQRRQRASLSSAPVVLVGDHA

Sequence of Serine/threonine-protein kinase PAK 2 (Homo sapiens) (Q13177 whole entry): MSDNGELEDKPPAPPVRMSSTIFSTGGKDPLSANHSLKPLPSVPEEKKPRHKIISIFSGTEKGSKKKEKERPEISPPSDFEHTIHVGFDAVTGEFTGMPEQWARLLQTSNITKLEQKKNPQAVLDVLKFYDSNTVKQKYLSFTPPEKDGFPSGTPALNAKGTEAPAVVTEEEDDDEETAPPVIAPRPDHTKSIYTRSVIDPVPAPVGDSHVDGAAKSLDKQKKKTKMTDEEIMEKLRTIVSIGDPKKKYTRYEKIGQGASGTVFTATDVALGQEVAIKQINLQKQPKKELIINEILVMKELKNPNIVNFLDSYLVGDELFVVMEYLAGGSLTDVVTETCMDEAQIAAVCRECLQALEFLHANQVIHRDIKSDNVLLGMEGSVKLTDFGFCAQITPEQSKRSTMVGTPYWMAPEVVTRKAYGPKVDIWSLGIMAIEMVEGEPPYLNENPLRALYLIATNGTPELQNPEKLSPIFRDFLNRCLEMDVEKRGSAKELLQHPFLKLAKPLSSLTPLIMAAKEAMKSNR
Sequence of Tyrosine-protein kinase JAK2 (Homo sapiens) (O60674 whole entry): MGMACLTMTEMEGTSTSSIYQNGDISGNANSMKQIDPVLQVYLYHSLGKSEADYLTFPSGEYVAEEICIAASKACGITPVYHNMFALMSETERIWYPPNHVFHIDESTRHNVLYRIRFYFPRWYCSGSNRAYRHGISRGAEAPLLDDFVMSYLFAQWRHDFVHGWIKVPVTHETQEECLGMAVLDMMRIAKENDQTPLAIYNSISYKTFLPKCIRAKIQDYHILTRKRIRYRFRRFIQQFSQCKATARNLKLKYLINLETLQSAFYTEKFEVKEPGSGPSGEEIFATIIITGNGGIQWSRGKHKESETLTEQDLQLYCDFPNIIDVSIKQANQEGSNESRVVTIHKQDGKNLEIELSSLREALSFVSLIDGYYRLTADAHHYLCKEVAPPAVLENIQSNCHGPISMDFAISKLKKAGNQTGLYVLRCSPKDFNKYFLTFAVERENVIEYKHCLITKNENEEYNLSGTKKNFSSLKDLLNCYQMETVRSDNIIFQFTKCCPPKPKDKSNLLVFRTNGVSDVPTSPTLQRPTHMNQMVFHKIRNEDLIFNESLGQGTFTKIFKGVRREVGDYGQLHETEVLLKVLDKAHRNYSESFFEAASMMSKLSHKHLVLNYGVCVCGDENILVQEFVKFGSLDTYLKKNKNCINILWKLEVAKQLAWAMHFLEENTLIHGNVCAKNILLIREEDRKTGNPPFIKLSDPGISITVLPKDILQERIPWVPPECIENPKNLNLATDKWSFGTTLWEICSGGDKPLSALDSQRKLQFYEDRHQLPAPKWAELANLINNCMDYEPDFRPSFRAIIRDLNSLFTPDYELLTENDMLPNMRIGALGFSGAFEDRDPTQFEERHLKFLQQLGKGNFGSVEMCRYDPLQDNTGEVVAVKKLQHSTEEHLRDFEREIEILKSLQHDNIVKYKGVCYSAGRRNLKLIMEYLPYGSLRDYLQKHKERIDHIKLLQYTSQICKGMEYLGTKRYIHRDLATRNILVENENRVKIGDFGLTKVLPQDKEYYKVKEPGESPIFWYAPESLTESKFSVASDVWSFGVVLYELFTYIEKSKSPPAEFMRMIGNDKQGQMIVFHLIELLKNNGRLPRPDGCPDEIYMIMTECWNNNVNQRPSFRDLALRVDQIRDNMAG
Sequence of Mitogen-activated protein kinase kinase kinase 9 (Homo sapiens) (P80192 whole entry, looked up): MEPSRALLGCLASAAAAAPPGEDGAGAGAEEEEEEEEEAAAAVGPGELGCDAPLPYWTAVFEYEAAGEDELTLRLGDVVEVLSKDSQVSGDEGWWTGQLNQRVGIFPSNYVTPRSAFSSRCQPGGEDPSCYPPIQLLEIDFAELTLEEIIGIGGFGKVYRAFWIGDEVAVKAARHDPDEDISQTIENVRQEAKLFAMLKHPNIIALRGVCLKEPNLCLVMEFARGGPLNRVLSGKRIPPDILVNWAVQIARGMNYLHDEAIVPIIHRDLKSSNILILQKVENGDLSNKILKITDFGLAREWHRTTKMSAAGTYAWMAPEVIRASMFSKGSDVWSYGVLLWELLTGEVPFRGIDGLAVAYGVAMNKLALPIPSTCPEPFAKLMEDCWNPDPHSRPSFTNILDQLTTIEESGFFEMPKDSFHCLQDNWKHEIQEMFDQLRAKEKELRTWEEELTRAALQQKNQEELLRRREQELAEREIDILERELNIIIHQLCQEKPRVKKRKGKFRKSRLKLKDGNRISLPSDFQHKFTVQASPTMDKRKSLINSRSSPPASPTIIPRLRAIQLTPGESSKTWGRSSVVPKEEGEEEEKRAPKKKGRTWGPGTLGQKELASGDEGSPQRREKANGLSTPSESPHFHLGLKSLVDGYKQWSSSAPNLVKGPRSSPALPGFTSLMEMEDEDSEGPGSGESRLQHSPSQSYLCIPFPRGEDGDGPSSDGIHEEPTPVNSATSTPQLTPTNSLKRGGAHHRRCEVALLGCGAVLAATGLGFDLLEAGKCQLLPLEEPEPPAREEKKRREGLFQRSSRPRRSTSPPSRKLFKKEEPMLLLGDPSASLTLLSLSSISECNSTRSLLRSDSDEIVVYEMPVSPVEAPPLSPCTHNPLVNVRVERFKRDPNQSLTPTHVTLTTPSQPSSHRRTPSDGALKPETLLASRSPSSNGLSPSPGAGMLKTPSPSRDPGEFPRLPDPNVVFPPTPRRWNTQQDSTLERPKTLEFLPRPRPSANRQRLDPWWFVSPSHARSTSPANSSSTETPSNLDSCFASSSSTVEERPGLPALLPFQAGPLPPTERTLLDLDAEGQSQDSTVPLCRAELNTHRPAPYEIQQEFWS
Sequence of Tyrosine-protein kinase Fyn (Homo sapiens) (P06241 2-537 limits assumed): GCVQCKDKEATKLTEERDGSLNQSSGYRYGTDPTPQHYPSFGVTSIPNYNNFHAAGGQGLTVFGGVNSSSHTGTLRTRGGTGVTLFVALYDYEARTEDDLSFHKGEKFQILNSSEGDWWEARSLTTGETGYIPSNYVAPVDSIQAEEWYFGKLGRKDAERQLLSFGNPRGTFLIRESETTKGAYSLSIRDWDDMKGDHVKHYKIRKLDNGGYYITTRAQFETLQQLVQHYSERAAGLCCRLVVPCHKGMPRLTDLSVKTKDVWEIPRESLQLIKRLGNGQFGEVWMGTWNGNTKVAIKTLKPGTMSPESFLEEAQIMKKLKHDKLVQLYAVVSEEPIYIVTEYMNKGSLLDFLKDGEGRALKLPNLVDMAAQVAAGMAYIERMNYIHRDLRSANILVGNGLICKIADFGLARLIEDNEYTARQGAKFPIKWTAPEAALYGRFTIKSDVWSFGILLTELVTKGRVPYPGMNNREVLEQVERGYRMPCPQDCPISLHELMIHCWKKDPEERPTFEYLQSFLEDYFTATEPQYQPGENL
Sequence of Casein kinase II subunit alpha' (Homo sapiens) (P19784 whole entry, looked up): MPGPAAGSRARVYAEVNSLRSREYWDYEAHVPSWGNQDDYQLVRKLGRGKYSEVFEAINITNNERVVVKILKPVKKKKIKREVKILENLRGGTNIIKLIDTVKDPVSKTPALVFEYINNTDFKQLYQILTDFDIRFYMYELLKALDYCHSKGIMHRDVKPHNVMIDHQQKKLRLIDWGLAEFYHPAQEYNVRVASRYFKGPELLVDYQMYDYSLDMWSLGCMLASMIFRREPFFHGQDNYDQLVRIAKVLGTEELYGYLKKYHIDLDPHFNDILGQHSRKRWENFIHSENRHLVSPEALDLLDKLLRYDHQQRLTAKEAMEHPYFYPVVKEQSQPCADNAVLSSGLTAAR
Sequence of Serine/threonine-protein kinase PLK3 (Homo sapiens) (Q9H4B4 whole entry, looked up): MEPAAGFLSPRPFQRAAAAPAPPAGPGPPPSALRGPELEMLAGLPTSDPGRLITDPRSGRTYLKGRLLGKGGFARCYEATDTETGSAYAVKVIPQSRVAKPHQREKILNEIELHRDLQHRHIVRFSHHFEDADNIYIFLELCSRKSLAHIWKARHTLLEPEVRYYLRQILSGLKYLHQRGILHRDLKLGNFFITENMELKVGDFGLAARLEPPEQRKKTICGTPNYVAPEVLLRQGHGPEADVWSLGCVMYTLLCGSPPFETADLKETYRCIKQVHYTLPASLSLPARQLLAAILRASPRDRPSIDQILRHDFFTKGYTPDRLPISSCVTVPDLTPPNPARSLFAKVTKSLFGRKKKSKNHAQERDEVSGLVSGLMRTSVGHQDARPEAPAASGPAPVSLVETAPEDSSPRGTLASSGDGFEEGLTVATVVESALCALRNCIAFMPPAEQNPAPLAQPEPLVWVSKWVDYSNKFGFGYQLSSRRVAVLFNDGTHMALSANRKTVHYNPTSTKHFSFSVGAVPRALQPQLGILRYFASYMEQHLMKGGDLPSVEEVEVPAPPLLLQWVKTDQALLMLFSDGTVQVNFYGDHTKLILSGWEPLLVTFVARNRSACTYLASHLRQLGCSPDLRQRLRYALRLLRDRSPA

`CC(C)[C@@H](Nc1ncnc2[nH]c(C(=O)N[C@@H]3CCN(C)C3)cc12)c1ccc2c(c1)S(=O)(=O)CCC2` showed an Activity [1] of 99%, an Activity [2] of 98% and an Activity [3] of 106%. It also gave an Activity [4] of 106%, an Activity [5] of 89% and an Activity [6] of 82%. For the same compound, the Activity [7] was 98%, the Activity [8] was 104% and the Activity [9] was 97%. It also gave an Activity [10] of 107%, an Activity [11] of 96% and an Activity [12] of 103%. For the same compound, the Activity [13] was 93%, the Activity [14] was 98% and the Activity [15] was 104%. For the same compound, the Activity [16] was 99%.
